In publication PMC11882969 (Nature Communications, 2025):
Values joined by “and” are separate entries in the source; they are usually repeats but may differ in a detail not shown here. Identical values can stand only once.

Assays:
[1] = biological target: T1, CB1 (rCB1) (Rattus norvegicus, UniProt P20272); assay: Single-point radioligand displacement screen; assay type: binding; conditions: 10 µM, 1 µM or 300 nM by cell colour (not visible)
[2] = biological target: T1, CB1 (rCB1); assay: Radioligand competition binding, [3H]-CP-55,940, rat brain membranes
[3] = biological target: hCB1 (Homo sapiens, UniProt P21554); assay: bioSensAll ebBRET signaling profiling, hCB1; assay type: cell-based; parameters: host or cells: HEK293SL cells, transient PEI transfection; conditions: for Gi1 hCB1 response: Gi1 biosensor; for Gi1 hCB1 / GoB hCB1: single replicate values, FigS6a
hCB1, sequence (P21554 whole entry): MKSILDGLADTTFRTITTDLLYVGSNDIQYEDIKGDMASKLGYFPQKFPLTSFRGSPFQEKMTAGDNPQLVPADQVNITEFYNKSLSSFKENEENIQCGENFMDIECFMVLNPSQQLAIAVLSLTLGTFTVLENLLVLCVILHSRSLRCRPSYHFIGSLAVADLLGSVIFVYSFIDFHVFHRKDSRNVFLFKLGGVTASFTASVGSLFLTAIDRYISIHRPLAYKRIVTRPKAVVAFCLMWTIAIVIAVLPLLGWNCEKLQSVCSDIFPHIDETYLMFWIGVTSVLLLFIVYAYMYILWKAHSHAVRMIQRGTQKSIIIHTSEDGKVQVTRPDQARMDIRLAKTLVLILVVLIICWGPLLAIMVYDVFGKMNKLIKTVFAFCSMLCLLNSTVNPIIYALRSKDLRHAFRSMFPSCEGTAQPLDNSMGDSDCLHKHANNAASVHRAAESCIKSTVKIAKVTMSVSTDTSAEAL

T1 sequence (P20272 whole entry): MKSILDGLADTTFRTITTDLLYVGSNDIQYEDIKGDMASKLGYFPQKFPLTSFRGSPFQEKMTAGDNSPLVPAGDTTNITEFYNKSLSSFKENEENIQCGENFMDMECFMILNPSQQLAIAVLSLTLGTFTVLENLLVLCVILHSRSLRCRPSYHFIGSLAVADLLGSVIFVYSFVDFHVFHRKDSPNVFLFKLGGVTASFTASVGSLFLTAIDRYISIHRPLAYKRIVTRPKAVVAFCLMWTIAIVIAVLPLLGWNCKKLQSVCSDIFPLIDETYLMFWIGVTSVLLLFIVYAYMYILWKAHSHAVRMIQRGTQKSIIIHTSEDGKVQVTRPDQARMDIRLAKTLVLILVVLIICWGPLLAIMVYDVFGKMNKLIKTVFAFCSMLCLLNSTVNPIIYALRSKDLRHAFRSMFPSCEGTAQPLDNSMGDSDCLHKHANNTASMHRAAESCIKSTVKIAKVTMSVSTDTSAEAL

With `COC(=O)C(NC(=O)c1cc(C)n(-c2cccc(C(F)(F)F)c2)n1)c1cccs1` (centres unmarked) [‘60154] the “% 1H-CP-55,940 displacement (mean) from single point screen” value [1] was 97.23%, the “improvement in affinity (free energy)” value ([2]; CF3 replacing F, ‘51486 vs ‘60154) was -1.7 kcal/mol and the “LLE (lipophilic ligand efficiency)” value ([2]; LLE = pIC50 − clogP) was 3.5. The “binding free energy ΔG” value ([2]; from measured Ki) was 10.0 kcal/mol, the “LE (ligand efficiency)” value ([2]; from rCB1 affinity) was 0.36 and the “pKi [95% CI]” value ([2]; rCB1) was 7.4 [7.2 – 7.5]. The Ki ([2]; read-out: Ki [95% CI], rCB1, [3H]-CP-55,940) was 44 nM and 44.3 nM, the “fold improvement in CB1R affinity” value ([2]; vs parent hit or analog without the change) was 17 fold and the “Gi1 hCB1 response” value ([3]; Log [Compound] (M) -4.22186) was 135.687. The “Gi1 hCB1 response” value ([3]; Log [Compound] (M) -4.63927) was 128.615, the “Gi1 hCB1 response” value ([3]; Log [Compound] (M) -5.05788) was 93.8563 and the “Gi1 hCB1 response” value ([3]; Log [Compound] (M) -5.47381) was 94.0353. The “Gi1 hCB1 response” value ([3]; Log [Compound] (M) -5.89285) was 102.272, the “Gi1 hCB1 response” value ([3]; Log [Compound] (M) -6.31878) was 90.7452 and the “Gi1 hCB1 response” value ([3]; Log [Compound] (M) -6.72585) was 85.0156. The “Gi1 hCB1 response” value ([3]; Log [Compound] (M) -7.14267) was 90.8795, the “Gi1 hCB1 response” value ([3]; Log [Compound] (M) -7.55284) was 57.4417 and the “Gi1 hCB1 response” value ([3]; Log [Compound] (M) -8) was 57.3074. The “Gi1 hCB1 response” value ([3]; Log [Compound] (M) -8.22186) was 41.0808, the “Gi1 hCB1 response” value ([3]; Log [Compound] (M) -8.39794) was 29.6663 and the “Gi1 hCB1 response” value ([3]; Log [Compound] (M) -8.68787) was 9.254. For the same compound, the “Gi1 hCB1 response” value ([3]; Log [Compound] (M) -9.15521) was -1.31, the “Gi1 hCB1 response” value ([3]; Log [Compound] (M) -9.61989) was -12.1646 and the “Gi1 hCB1 response” value ([3]; Log [Compound] (M) -10.0969) was 3.838. For the same compound, the “Gi1 hCB1 response” value ([3]; Log [Compound] (M) -10.5529) was 8.852, the “Gi1 hCB1 response” value ([3]; Log [Compound] (M) -11.0177) was -14.1566 and the “Gi1 hCB1 response” value ([3]; Log [Compound] (M) -11.4949) was -8.897. The “Gi1 hCB1 response” value ([3]; Log [Compound] (M) -11.9208) was 6.613, the “Gi1 hCB1 response” value ([3]; Log [Compound] (M) -12.3979) was -8.651 and the “Gi1 hCB1 response” value ([3]; Log [Compound] (M) -12.8861) was -7.89. The “Gi1 hCB1 response” value ([3]; Log [Compound] (M) -13, individual replicate values) was -1.847 and -6.9945, the “Gi1 hCB1” value ([3]; Log [Compound] (M) -4.22186) was 97.0901 and the “GoB hCB1” value ([3]; Log [Compound] (M) -4.22186) was 92.7297. The “Gi1 hCB1” value ([3]; Log [Compound] (M) -4.63927) was 95.1785, the “GoB hCB1” value ([3]; Log [Compound] (M) -4.63927) was 96.2724 and the “Gi1 hCB1” value ([3]; Log [Compound] (M) -5.05788) was 93.4672. The “GoB hCB1” value ([3]; Log [Compound] (M) -5.05788) was 98.1786, the “Gi1 hCB1” value ([3]; Log [Compound] (M) -5.47381) was 90.2143 and the “GoB hCB1” value ([3]; Log [Compound] (M) -5.47381) was 107.08. The “Gi1 hCB1” value ([3]; Log [Compound] (M) -5.89285) was 87.9019, the “GoB hCB1” value ([3]; Log [Compound] (M) -5.89285) was 95.1574 and the “Gi1 hCB1” value ([3]; Log [Compound] (M) -6.31878) was 75.1986. For the same compound, the “GoB hCB1” value ([3]; Log [Compound] (M) -6.31878) was 99.5993, the “Gi1 hCB1” value ([3]; Log [Compound] (M) -6.72585) was 72.9632 and the “GoB hCB1” value ([3]; Log [Compound] (M) -6.72585) was 94.8877. The “Gi1 hCB1” value ([3]; Log [Compound] (M) -7.14267) was 69.0474, the “GoB hCB1” value ([3]; Log [Compound] (M) -7.14267) was 78.6487 and the “Gi1 hCB1” value ([3]; Log [Compound] (M) -7.55284) was 54.4325. The “GoB hCB1” value ([3]; Log [Compound] (M) -7.55284) was 63.3449, the “Gi1 hCB1” value ([3]; Log [Compound] (M) -8) was 27.0835 and the “GoB hCB1” value ([3]; Log [Compound] (M) -8) was 30.6512. For the same compound, the “Gi1 hCB1” value ([3]; Log [Compound] (M) -8.22186) was 23.9076, the “GoB hCB1” value ([3]; Log [Compound] (M) -8.22186) was 16.822 and the “Gi1 hCB1” value ([3]; Log [Compound] (M) -8.39794) was 14.1027. For the same compound, the “GoB hCB1” value ([3]; Log [Compound] (M) -8.39794) was 15.743, the “Gi1 hCB1” value ([3]; Log [Compound] (M) -8.68787) was 6.5794 and the “GoB hCB1” value ([3]; Log [Compound] (M) -8.68787) was 4.5753. For the same compound, the “Gi1 hCB1” value ([3]; Log [Compound] (M) -9.15521) was 2.17, the “GoB hCB1” value ([3]; Log [Compound] (M) -9.15521) was -0.7658 and the “Gi1 hCB1” value ([3]; Log [Compound] (M) -9.61989) was 0.08902. For the same compound, the “GoB hCB1” value ([3]; Log [Compound] (M) -9.61989) was 0.7808, the “Gi1 hCB1” value ([3]; Log [Compound] (M) -10.0969) was -0.8206 and the “GoB hCB1” value ([3]; Log [Compound] (M) -10.0969) was -0.1723. The “Gi1 hCB1” value ([3]; Log [Compound] (M) -10.5529) was 0.8599, the “GoB hCB1” value ([3]; Log [Compound] (M) -10.5529) was -2.762 and the “Gi1 hCB1” value ([3]; Log [Compound] (M) -11.0177) was 1.677. The “GoB hCB1” value ([3]; Log [Compound] (M) -11.0177) was -1.018 and the “Gi1 hCB1” value ([3]; Log [Compound] (M) -11.4949) was 1.6461.
